Like-named read-outs stand apart in the source and are kept apart here.
Experiments:
jack bean urease [1] = target: T1, jack bean urease (Canavalia ensiformis, UniProt P07374); assay: biochemical
Description: Each tube received 400 µL of urea (20 mM) as substrate, which was then incubated for 10 min at the same temperature.
Each inhibitor’s binding mechanism was tested at various doses (0–20 µM) for kinetics investigations. […] Lineweaver Burk plots were drawn using GraphPad PRISM 7.0 to determine the values of Km (app), Vmax (app), and Ki (inhibition constant).

jack bean urease [2] = target: T1, jack bean urease; conditions: for Vmax (app): maximum rate at 20 µM of inhibitor concentration; for Mode of inhibition: urea 0.5-4.0 mM, inhibitor 0-20 µM; for % inhibition of urease: value in parentheses beside IC50, n = 3, concentration not given
[3] = test system: carrageenan-induced acute inflammation in mice; assay: Carrageenan-induced paw edema anti-inflammatory study; type: in vivo; conditions: 10 mg/kg intraperitoneally, n = 6
Description: As previously mentioned in our study, carrageenan-induced acute inflammation in mice was used to measure the anti-inflammatory effect ([Ahmed et al., 2018b]). Six groups of mice were formed and each group comprised six mice, the mice fasted 16 h before of induction of inflammation by injecting the phlogistic agent (carrageenan). The right hind paw of each mouse was measured before and after the 100 µL injection of the carrageenan (1% in 0.9% saline). The test substances, standard medication (indomethacin), and control (0.9% saline) were administered intraperitoneally at 10 mg/kg body weight. For 3 h, and after the 1-h interval, the thickness (mm) of the right hind paw of each mouse was measured. The difference in thickness of paw edema of control and test substance was used to determine the percentage inhibition of inflammation by the formula given below. Percentage inhibition of inflammation=Ct−CocontrolCt−Cotreated/Ct−Cocontrol×100 (2)
Where Ct and Co are the right hind paw thickness after and before carrageenan injection.

COX-2 enzyme = target: T2, COX-2 enzyme (Homo sapiens, UniProt P35354); assay: COX-2 inhibitory assay (Cayman kit); type: biochemical; conditions: n = 3
T2 construct: purchased Cayman Chemical Company, United States Item No. 760151
T2 sequence (P35354 18-604): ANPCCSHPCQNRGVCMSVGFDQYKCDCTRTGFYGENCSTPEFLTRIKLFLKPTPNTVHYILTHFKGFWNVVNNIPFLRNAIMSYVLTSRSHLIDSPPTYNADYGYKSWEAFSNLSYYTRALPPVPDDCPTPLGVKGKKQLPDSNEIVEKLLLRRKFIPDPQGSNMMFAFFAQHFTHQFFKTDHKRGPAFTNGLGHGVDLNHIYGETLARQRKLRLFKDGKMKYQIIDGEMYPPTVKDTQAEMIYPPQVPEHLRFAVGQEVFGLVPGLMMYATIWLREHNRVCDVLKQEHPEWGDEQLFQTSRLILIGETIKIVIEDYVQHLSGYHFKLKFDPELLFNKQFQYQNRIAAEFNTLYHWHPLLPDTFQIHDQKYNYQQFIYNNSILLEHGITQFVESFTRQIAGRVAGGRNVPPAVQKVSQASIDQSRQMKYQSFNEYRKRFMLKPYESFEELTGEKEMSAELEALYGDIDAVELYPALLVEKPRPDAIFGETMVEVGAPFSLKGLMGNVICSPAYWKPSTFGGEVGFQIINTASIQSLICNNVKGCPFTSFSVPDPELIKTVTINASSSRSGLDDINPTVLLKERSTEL
Description: For the initial activity assay, 150 µL buffer, 10 µL heme, and 10 µL COX-2 enzyme were mixed in a well whereas 110 µL buffer, 10 µL heme, 10 µL COX-2 enzyme, and 40 µL test inhibitor (10 µM) were mixed for inhibitory assay using 96 wells plate.

T1 sequence (P07374 whole entry, looked up): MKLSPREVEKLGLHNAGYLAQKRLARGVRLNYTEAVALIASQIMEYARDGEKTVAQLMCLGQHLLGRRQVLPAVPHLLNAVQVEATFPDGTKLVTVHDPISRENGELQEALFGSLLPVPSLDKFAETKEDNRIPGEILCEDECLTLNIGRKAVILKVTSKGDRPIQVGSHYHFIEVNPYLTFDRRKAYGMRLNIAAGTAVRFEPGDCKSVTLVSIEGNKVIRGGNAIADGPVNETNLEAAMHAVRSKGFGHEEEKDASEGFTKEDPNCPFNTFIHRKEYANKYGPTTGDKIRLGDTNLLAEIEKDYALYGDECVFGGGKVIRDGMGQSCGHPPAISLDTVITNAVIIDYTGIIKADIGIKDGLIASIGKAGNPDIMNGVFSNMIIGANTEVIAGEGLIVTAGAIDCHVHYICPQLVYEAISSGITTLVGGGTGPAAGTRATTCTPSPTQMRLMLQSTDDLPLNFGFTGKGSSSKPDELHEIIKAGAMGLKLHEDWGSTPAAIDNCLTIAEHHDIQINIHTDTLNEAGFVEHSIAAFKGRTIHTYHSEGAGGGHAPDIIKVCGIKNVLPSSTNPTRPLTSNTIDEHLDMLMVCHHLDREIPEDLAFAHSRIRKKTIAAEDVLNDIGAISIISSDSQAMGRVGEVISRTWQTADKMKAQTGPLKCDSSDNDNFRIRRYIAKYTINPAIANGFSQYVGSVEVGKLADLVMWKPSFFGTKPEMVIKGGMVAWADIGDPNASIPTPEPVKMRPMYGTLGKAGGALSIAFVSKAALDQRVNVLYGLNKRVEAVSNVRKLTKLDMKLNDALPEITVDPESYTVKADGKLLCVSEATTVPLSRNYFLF

| SMILES | IC50 (jack bean urease [1]) | Ki (jack bean urease [1]) | Vmax (app) (jack bean urease [2]; Lineweaver Burk plot) | Mode of inhibition (jack bean urease [2]) | % inhibition of urease (jack bean urease [2]) | melting point | Paw edema in mm (mean ± SEM) ([3]; 0 h) | % inhibition of paw edema ([3]; 1 h) | Paw edema in mm (mean ± SEM) ([3]; 1 h) | % inhibition of paw edema ([3]; 2 h) | Paw edema in mm (mean ± SEM) ([3]; 2 h) | % inhibition of paw edema ([3]; 3 h) | Paw edema in mm (mean ± SEM) ([3]; 3 h) | inhibition at 10 µM (COX-2 enzyme) | IC50 (jack bean urease [2]; read-out: IC50 (µM), mean ± SEM, jack bean urease, n = 3, thiourea as standard) | Ki (jack bean urease [2]; read-out: Ki (inhibition constant), secondary Lineweaver Burk plot) | Km (jack bean urease [2]; read-out: Km (app), Michaelis constant at 20 µM of inhibitor concentration, Lineweaver Burk plot) |
| --- | --- | --- | --- | --- | --- | --- | --- | --- | --- | --- | --- | --- | --- | --- | --- | --- | --- |
| COc1ccc2cc([C@H](C)C(=O)Nc3ccc(S(=O)(=O)NC(=N)N)cc3)ccc2c1 [Conjugate 10, (S)-N-(4-(N-carbamimidoylsulfamoyl)phenyl)-2-(6-methoxynaphthalen-2-yl)propanamide] | 5.06 ± 0.29 µM | 3.56 µM | 1.96 µM/min | Competitive | 89.1% |  |  |  |  |  |  |  |  |  |  |  |  |
| COc1ccc2cc([C@H](C)C(=O)Nc3ccc(S(=O)(=O)Nc4nccs4)cc3)ccc2c1 [Conjugate 5, (S)-2-(6-methoxynaphthalen-2-yl)-N-(4-(N-(thiazol-2-yl)sulfamoyl)phenyl)propanamide] | 5.82 ± 0.28 µM | 5.05 µM | 0.714 µM/min | Competitive | 88.9% | 184 to 185 °C | 1.81 ± 0.05 (−) mm | 9.1% | 2.71 ± 0.09 mm | 43.3% | 2.57 ± 0.11 mm | 75.3% | 2.43 ± 0.08 mm | 61.3% |  |  |  |
| COc1ccc2cc([C@H](C)C(=O)Nc3ccc(S(N)(=O)=O)cc3)ccc2c1 [Conjugate 3, (S)-2-(6-methoxynaphthalen-2-yl)-N-(4-sulfamoylphenyl)propanamide] | 6.69 ± 0.11 µM | 2.4 µM | 2.57 µM/min | Competitive | 89.4% | 208 to 210 °C |  |  |  |  |  |  |  |  |  |  |  |
| COc1ccc2cc([C@H](C)C(=O)O)ccc2c1 [Naproxen, reference compound] |  |  |  |  |  |  | 1.81 ± 0.06 (−) mm | 21.1% | 2.60 ± 0.13 mm | 46.3% | 2.53 ± 0.11 mm | 76.1% | 2.41 ± 0.12 mm |  |  |  |  |
| NC(N)=S [Thiourea, reference compound] |  |  | 18.61 µM/min | Competitive | 92.3% |  |  |  |  |  |  |  |  |  | 22.6 ± 0.23 µM | 18.2 µM | 2180 µM |
| COc1ccc2cc([C@H](C)C(=O)Nc3ccc(S(=O)(=O)Nc4onc(C)c4C)cc3)ccc2c1 [Conjugate 4, (S)-N-(4-(N-(3,4-dimethylisoxazol-5-yl)sulfamoyl)phenyl)-2-(6-methoxynaphthalen-2-yl)propanamide] | 25.63 ± 0.24 µM |  |  |  | 94.1% | 241 to 243 °C | 1.80 ± 0.04 (−) mm | 8.2% | 2.72 ± 0.12 mm | 45.5% | 2.53 ± 0.09 mm | 78.0% | 2.36 ± 0.11 mm | 64.5% |  |  |  |
| COc1ccc2cc([C@H](C)C(=O)Nc3ccc(S(=O)(=O)Nc4cc(C)on4)cc3)ccc2c1 [Conjugate 8, (S)-2-(6-methoxynaphthalen-2-yl)-N-(4-(N-(5-methylisoxazol-3-yl)sulfamoyl)phenyl)propanamide] | 29.64 ± 0.27 µM |  |  |  | 87.6% | 178 to 180 °C | 1.80 ± 0.08 (−) mm | 24.1% | 2.56 ± 0.14 mm | 47.0% | 2.51 ± 0.08 mm | 82.8% | 2.23 ± 0.12 mm | 75.4% |  |  |  |
| COc1ccc2cc([C@H](C)C(=O)Nc3ccc(S(=O)(=O)Nc4nccc(C)n4)cc3)ccc2c1 [Conjugate 7, (S)-2-(6-methoxynaphthalen-2-yl)-N-(4-(N-(4-methylpyrimidin-2-yl)sulfamoyl)phenyl)propanamide] | 16.57 ± 0.14 µM | 9.98 µM | 0.602 µM/min | Mixed | 84.3% | 160 to 162 °C |  |  |  |  |  |  |  |  |  |  |  |
| COc1ccc2c(c1)c(CC(=O)O)c(C)n2C(=O)c1ccc(Cl)cc1 [Indomethacin, reference compound] |  |  |  |  |  |  | 1.81 ± 0.05 (−) mm | 20.1% | 2.61 ± 0.14 mm | 55.2% | 2.41 ± 0.09 mm | 86.8% | 2.14 ± 0.09 mm |  |  |  |  |
| COc1ccc2cc([C@H](C)C(=O)Nc3ccc(S(=O)(=O)NC(C)=O)cc3)ccc2c1 [Conjugate 9, (S)-N-(4-(N-acetylsulfamoyl)phenyl)-2-(6-methoxynaphthalen-2-yl)propanamide] | 20.32 ± 0.12 µM | 2.61 µM | 0.66 µM/min | Mixed | 85.7% | 138 to 140 °C |  |  |  |  |  |  |  |  |  |  |  |
| COc1ccc2cc([C@H](C)C(=O)Nc3ccc(S(=O)(=O)Nc4ncccn4)cc3)ccc2c1 [Conjugate 6, (S)-2-(6-methoxynaphthalen-2-yl)-N-(4-(N-(pyrimidin-2-yl)sulfamoyl)phenyl)propanamide] | 4.08 ± 0.1 µM | 5.58 µM | 0.363 µM/min | Mixed | 90.3% | 163 to 165 °C |  |  |  |  |  |  |  |  |  |  |  |

— article PMC10434765, “Exploring the potential of propanamide-sulfonamide based drug conjugates as dual inhibitors of urease and cyclooxygenase-2: biological and their in silico studies” (Frontiers in Chemistry, 2023)
